Biological target: His-tagged CRBN-DDB1 complex (Homo sapiens, UniProt Q96SW2)
Experiment: Time-Resolved Fluorescence Resonance Energy Transfer (TR-FRET / HTRF) CRBN binding assay, displacement of Cy5-labeled thalidomide
Details: His-CRBN-DDB1, Cy5-thalidomide 8 nM, 1 hour room temperature
Procedure: Time-Resolved Fluorescence Resonance Energy Transfer (TR-FRET) Assay.
Equal volumes of His-tagged CRBN-DDB1 complex (56 nM) was mixed with Eu-cryptate labeled Anti-6HIS-monoclonal antibody (50× dilution from the commercial stock solution, Vender: Cisbio, Cat. #61HI2KLA) in a final buffer containing 20 mM HEPES pH 7.0, 150 mM NaCl, 0.005% Tween-20. […] The mixture were incubated at room temperature for 1 hour. FRET signals were measured on an EnVision plate reader (Perkin Elmer) by exciting at 340 nm and recording emission at both 615 nm as no FRET control and 665 nm as the FRET signals with a 60 microsecond delay. FRET efficiency was calculated as the ratio of fluorescent signals at […]. Quantitative loss of FRET efficiency as a function of compound concentrations was fitted by a four-parameter Logistic Function using GraphPad Prism 7.0 and the IC50 values were reported for each compound.
The compound numbers correspond to the compound numbers in Table 1.

His-tagged CRBN-DDB1 complex, sequence (Q96SW2 whole entry): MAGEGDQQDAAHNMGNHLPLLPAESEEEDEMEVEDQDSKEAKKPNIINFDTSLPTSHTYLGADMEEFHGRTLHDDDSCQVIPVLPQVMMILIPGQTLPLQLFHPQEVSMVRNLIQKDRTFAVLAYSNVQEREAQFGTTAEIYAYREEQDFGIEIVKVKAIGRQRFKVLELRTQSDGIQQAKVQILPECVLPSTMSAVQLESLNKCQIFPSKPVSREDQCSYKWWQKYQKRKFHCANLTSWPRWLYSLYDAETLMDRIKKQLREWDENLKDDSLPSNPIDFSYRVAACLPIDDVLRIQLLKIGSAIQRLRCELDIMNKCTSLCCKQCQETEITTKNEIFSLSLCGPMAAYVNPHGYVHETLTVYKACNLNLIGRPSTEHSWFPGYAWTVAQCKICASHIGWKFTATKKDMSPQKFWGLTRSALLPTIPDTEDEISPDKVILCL
His-tagged CRBN-DDB1 complex, sequence (Q16531 whole entry partner): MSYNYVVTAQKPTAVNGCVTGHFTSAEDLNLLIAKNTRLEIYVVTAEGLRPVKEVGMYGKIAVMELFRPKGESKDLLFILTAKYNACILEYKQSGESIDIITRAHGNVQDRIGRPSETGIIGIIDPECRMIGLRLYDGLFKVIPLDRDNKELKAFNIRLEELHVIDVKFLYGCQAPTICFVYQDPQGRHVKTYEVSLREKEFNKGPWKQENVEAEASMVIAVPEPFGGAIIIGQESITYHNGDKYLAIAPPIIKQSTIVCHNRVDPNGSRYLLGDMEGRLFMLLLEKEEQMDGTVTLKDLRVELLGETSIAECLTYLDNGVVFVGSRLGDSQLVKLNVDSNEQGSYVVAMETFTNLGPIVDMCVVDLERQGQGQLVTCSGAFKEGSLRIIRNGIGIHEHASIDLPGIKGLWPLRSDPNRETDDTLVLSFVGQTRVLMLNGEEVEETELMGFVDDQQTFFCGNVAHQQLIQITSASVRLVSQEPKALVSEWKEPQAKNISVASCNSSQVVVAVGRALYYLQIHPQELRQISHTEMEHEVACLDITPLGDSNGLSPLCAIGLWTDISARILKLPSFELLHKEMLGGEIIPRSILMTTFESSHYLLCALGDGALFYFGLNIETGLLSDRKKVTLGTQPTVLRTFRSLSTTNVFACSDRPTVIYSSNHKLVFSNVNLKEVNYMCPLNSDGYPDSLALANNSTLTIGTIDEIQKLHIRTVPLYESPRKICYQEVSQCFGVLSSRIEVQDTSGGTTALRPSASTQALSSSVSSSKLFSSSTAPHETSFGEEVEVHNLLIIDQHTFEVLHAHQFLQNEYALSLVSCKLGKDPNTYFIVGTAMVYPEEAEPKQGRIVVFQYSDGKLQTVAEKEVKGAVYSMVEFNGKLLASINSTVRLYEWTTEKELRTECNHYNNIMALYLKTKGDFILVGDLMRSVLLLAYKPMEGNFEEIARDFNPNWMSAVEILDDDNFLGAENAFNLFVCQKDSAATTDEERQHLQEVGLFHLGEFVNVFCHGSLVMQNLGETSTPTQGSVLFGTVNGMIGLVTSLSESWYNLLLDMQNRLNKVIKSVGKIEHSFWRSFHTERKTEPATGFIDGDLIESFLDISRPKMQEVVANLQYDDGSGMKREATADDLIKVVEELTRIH

IC50 [µM]	SMILES
> 100	O=C1Cc2cnc(Br)cc2C(=O)N1 [Compound I-13, 7-bromo-2,4-dihydro-2,6-naphthyridine-1,3-dione]
> 100	O=C1NC(=O)c2cc(Br)ccc21 [Compound I-28, 5-bromo-2H-isoindole-1,3-dione]
> 100	Cc1ccccc1-c1ccc2c(c1)C(=O)NC2=O [Compound I-30, 5-(2-methylphenyl)-2H-isoindole-1,3-dione]
> 100	Cc1ncoc1-c1ccc2c(c1)C(=O)NC2=O [Compound I-32, 5-(4-methyl-1,3-oxazol-5-yl)-2H-isoindole-1,3-dione]
> 100	Cc1ccccc1-n1cc2c(n1)CC(=O)NC2=O [Compound I-35, 2-(2-methylphenyl)-5H,7H-pyrazolo[4,3-c]pyridine-4,6-dione]
> 100	O=c1[nH]c(=O)c2cc(Br)ccc2[nH]1 [Compound I-55, 6-Bromo-1,3-dihydroquinazoline-2,4-dione]
> 100	O=c1[nH]c(=O)c2c(Br)cccc2[nH]1 [Compound I-56, 5-Bromo-1,3-dihydroquinazoline-2,4-dione]
> 100	Cn1c(=O)[nH]c(=O)c2cc(Br)ccc21 [Compound I-59, 6-bromo-1-methyl-3H-quinazoline-2,4-dione]
> 100	Cn1c(=O)[nH]c(=O)c2c(Br)cccc21 [Compound I-60, 5-bromo-1-methyl-3H-quinazoline-2,4-dione]
> 100	O=C1CC2(CCN(c3ccc(Br)cc3)CC2)CC(=O)N1 [Compound I-86]
> 100	COc1cc(F)ccc1N1CCC2(CC1)CC(=O)NC(=O)C2 [Compound I-87]
> 100	COc1cccc(N2CCC3(CC2)CC(=O)NC(=O)C3)c1 [Compound I-88]
> 100	O=C1CC2(CCN(c3cccc(Cl)c3)CC2)CC(=O)N1 [Compound I-89]
> 100	O=C1CC2(CCN(c3ccc(C(=O)NC4CC4)cc3)CC2)CC(=O)N1 [Compound I-90]
> 100	O=C1CC2(CCN(c3ccc(OCc4ccccc4)cc3)CC2)CC(=O)N1 [Compound I-91]
30 to 100	O=C1CC2(CCN(c3ccc(F)cc3)CC2)CC(=O)N1 [Compound I-92]
> 100	Cc1ccc(N2CCC3(CC2)CC(=O)NC(=O)C3)cc1 [Compound I-93]
> 100	O=C1CC2(CCN(c3cccc4ncccc34)CC2)CC(=O)N1 [Compound I-94]
30 to 100	CCCOc1ccc(N2CCC3(CC2)CC(=O)NC(=O)C3)cc1 [Compound I-95]
> 100	CCOC(=O)c1cccc(N2CCC3(CC2)CC(=O)NC(=O)C3)c1 [Compound I-96]
> 100	O=C1CC2(CCN(c3cccc(O)c3)CC2)CC(=O)N1 [Compound I-97]
> 100	O=C1CC2(CCN(c3ccc(-c4ccccc4)cc3)CC2)CC(=O)N1 [Compound I-98]
> 100	O=C1CC2(CCN(c3cccc(F)c3)CC2)CC(=O)N1 [Compound I-99]
> 100	CC(=O)Nc1cccc(N2CCC3(CC2)CC(=O)NC(=O)C3)c1 [Compound I-100]
> 100	CC(C)Oc1cccc(N2CCC3(CC2)CC(=O)NC(=O)C3)c1 [Compound I-101]
> 100	O=C1CC2(CCN(c3cccc(OC(F)(F)F)c3)CC2)CC(=O)N1 [Compound I-102]

IC50 [µM]	SMILES
> 100	O=C1CC2(CCN(c3ccc(O)cc3)CC2)CC(=O)N1 [Compound I-103]
> 100	O=C1CC2(CCN(c3cccc4cnccc34)CC2)CC(=O)N1 [Compound I-104]
> 100	O=C1CC2(CCN(c3ccc(OC(F)(F)F)cc3)CC2)CC(=O)N1 [Compound I-105]
> 100	O=C1CC2(CCN(c3cccc(C(=O)O)c3)CC2)CC(=O)N1 [Compound I-106]
> 100	CS(=O)(=O)c1ccc(N2CCC3(CC2)CC(=O)NC(=O)C3)cc1 [Compound I-107]
30 to 100	CC(C)(C)OC(=O)NCc1ccc(N2CCC3(CC2)CC(=O)NC(=O)C3)cc1 [Compound I-108]
> 100	O=C1CC2(CCN(c3cccc4cccnc34)CC2)CC(=O)N1 [Compound I-109]
> 100	O=C1CC2(CCN(c3ccc(F)cc3Cl)CC2)CC(=O)N1 [Compound I-110]
> 100	N#Cc1ccccc1N1CCC2(CC1)CC(=O)NC(=O)C2 [Compound I-111]
> 100	O=Cc1ccc(N2CCC3(CC2)CC(=O)NC(=O)C3)cc1 [Compound I-112]
> 100	Nc1ccc(N2CCC3(CC2)CC(=O)NC(=O)C3)cc1 [Compound I-113]
30 to 100	O=C1CC2(CCN(c3ccc(Oc4ccccc4)cc3)CC2)CC(=O)N1 [Compound I-114]
> 100	O=C1CC2(CCN(c3ccccc3Cl)CC2)CC(=O)N1 [Compound I-115]
> 100	NC(=O)c1ccc(N2CCC3(CC2)CC(=O)NC(=O)C3)cc1 [Compound I-116]
> 100	COc1ccc2cc(N3CCC4(CC3)CC(=O)NC(=O)C4)ccc2c1 [Compound I-117]
> 100	O=C1CC2(CCN(c3ccc4c(c3)CCO4)CC2)CC(=O)N1 [Compound I-118]
> 100	O=C1CC2(CCN(c3ccc4c(c3)OCO4)CC2)CC(=O)N1 [Compound I-119]
> 100	O=C1NC(=O)[C@@H]2CN(c3ccc(-c4ccccc4)c(F)c3)C[C@H]12 [Compound I-120]
> 100	Cc1ccccc1N1C[C@@H]2C(=O)NC(=O)[C@@H]2C1 [Compound I-121]
> 100	COC(=O)c1ccc(N2C[C@@H]3C(=O)NC(=O)[C@@H]3C2)cc1 [Compound I-122]
30 to 100	O=C1NC(=O)[C@@H]2CN(c3ccc(Br)cc3)C[C@H]12 [Compound I-123]
> 100	COc1cccc(N2C[C@@H]3C(=O)NC(=O)[C@@H]3C2)c1 [Compound I-125]
> 100	O=C1NC(=O)[C@@H]2CN(c3cccc(Cl)c3)C[C@H]12 [Compound I-126]
> 100	O=C(NC1CC1)c1ccc(N2C[C@@H]3C(=O)NC(=O)[C@@H]3C2)cc1 [Compound I-127]
> 100	O=C1NC(=O)[C@@H]2CN(c3ccc(OCc4ccccc4)cc3)C[C@H]12 [Compound I-128]
> 100	O=C1NC(=O)[C@@H]2CN(c3ccc(F)cc3)C[C@H]12 [Compound I-129]

IC50 [µM]	SMILES
30 to 100	Cc1ccc(N2C[C@@H]3C(=O)NC(=O)[C@@H]3C2)cc1 [Compound I-130]
> 100	O=C1NC(=O)[C@@H]2CN(c3cccc4ncccc34)C[C@H]12 [Compound I-131]
> 100	O=C1NC(=O)[C@@H]2CN(c3cccc(O)c3)C[C@H]12 [Compound I-134]
> 100	O=C1NC(=O)[C@@H]2CN(c3cccc(F)c3)C[C@H]12 [Compound I-135]
> 100	CC(=O)Nc1cccc(N2C[C@@H]3C(=O)NC(=O)[C@@H]3C2)c1 [Compound I-136]
> 100	CC(C)Oc1cccc(N2C[C@@H]3C(=O)NC(=O)[C@@H]3C2)c1 [Compound I-137]
> 100	CCCOc1ccc(N2C[C@@H]3C(=O)NC(=O)[C@@H]3C2)cc1 [Compound I-138]
> 100	O=C1NC(=O)[C@@H]2CN(c3cccc(OC(F)(F)F)c3)C[C@H]12 [Compound I-139]
> 100	O=C1NC(=O)[C@@H]2CN(c3ccc(O)cc3)C[C@H]12 [Compound I-140]
> 100	O=C1NC(=O)[C@@H]2CN(c3cccc4cnccc34)C[C@H]12 [Compound I-141]
> 100	O=C1NC(=O)[C@@H]2CN(c3ccc(OC(F)(F)F)cc3)C[C@H]12 [Compound I-142]
> 100	O=C(O)c1cccc(N2C[C@@H]3C(=O)NC(=O)[C@@H]3C2)c1 [Compound I-143]
> 100	CS(=O)(=O)c1ccc(N2C[C@@H]3C(=O)NC(=O)[C@@H]3C2)cc1 [Compound I-144]
> 100	CC(C)(C)OC(=O)NCc1ccc(N2C[C@@H]3C(=O)NC(=O)[C@@H]3C2)cc1 [Compound I-145]
> 100	O=C1NC(=O)[C@@H]2CN(c3cccc4cccnc34)C[C@H]12 [Compound I-146]
> 100	O=C1NC(=O)[C@@H]2CN(c3ccc(F)cc3Cl)C[C@H]12 [Compound I-147]
> 100	N#Cc1ccccc1N1C[C@@H]2C(=O)NC(=O)[C@@H]2C1 [Compound I-148]
> 100	O=Cc1ccc(N2C[C@@H]3C(=O)NC(=O)[C@@H]3C2)cc1 [Compound I-149]
> 100	Nc1ccc(N2C[C@@H]3C(=O)NC(=O)[C@@H]3C2)cc1 [Compound I-150]
> 100	O=C1NC(=O)[C@@H]2CN(c3ccccc3Cl)C[C@H]12 [Compound I-153]
> 100	NC(=O)c1ccc(N2C[C@@H]3C(=O)NC(=O)[C@@H]3C2)cc1 [Compound I-154]
> 100	COc1ccc2cc(N3C[C@@H]4C(=O)NC(=O)[C@@H]4C3)ccc2c1 [Compound I-155]
> 100	O=C1NC(=O)[C@@H]2CN(c3ccc4c(c3)CCO4)C[C@H]12 [Compound I-156]
> 100	O=C1NC(=O)[C@@H]2CN(c3ccc4c(c3)OCO4)C[C@H]12 [Compound I-157]
> 100	O=C1NC(=O)[C@@H]2CN(c3ccccc3)C[C@H]12 [Compound I-158]
> 100	O=C1CC2(CCN(c3ccc(-c4ccccc4)c(F)c3)CC2)CC(=O)N1 [Compound I-160]

From patent publication US20220281831A1, “FUSED-GLUTARIMIDE CRBN LIGANDS AND USES THEREOF” (Kymera Therapeutics, Inc., priority 2019, published 2022)
